Laboratory results taken from paper PMC5082894 (PLoS ONE, 2016).

Key:
[1] = test system: HIV-1 NL4-3; test: MAGI assay, HIV-1 NL4-3; assay type: cell-based; conditions: MAGI cells, 48 h, mean of triplicate ± SD
Description: (§1) Briefly, target cells (HeLa CD4/CCR5-LTR/β-gal; 10^4/well) were plated in 96-well flat microtiter culture plates. […] The test drugs were added initially and viruses were immediately inoculated onto the cells. Forty-eight hours after viral exposure, all blue cells in each well were counted. The cytotoxicity of the compound was determined by the MTT method as previously described. All experiments were performed in triplicate and AZT was used as reference anti-HIV-1 molecule.

[2] = test system: HIV-1 LAI (B-X4); test: PBMC antiviral assay (RT activity), HIV-1 LAI; assay type: cell-based; conditions: PHA-P-activated PBMCs, 125 TCID50, day 7, RT activity
Description: (§2) In order to confirm antiretroviral activity of the compounds, using a cell model closer to the pathophysiology, Peripheral Blood Mononuclear Cells (PBMCs) were separated from a buffy-coat from healthy HIV-, HCV-, HBV-seronegative blood donors by Ficoll-Hypaque density gradient centrifugation. The PBMCs were activated by incubation with 1 μg/ml phytohemagglutinin-P (PHA-P; Difco Laboratories) for three days in RPMI 1640 medium supplemented with 10% heat-inactivated fetal calf serum (FCS, +56 ◦C for 45 min), 2mM l-glutamine and a 1% antibiotic cocktail (penicillin, streptomycin, neomycin). After this mitogen activation, PBMCs were cultivated in the same culture medium supplemented with recombinant human interleukin-2 (rHuIL-2; 20 IU/mL) and treated and/or infected. […] All these viruses were amplified in vitro with PHA-P-activated blood mononuclear cells and 50% tissue culture infectious doses (TCID50) were calculated using Kärber’s formula [37], after limited-dilution titration. […] Viral replication was measured by quantifying reverse transcriptase (RT) activity in the cell culture supernatants using the Lenti RT Activity Kit (Cavidi) and AZT was used as reference anti-HIV-1 molecule. EC50 were then calculated and expressed in μM.

[3] = test system: PBMCs; test: Cytotoxicity in PBMCs; assay type: cell-based, human; conditions: PBMCs
[4] = test system: HIV-1 92HT599 (B-X4); test: PBMC antiviral assay (RT activity), HIV-1 92HT599; assay type: cell-based; conditions: PHA-P-activated PBMCs, 125 TCID50, day 7, RT activity
Description: as §2

[5] = test system: HIV-1 98IN017 (C-X4); test: PBMC antiviral assay (RT activity), HIV-1 98IN017; assay type: cell-based; conditions: PHA-P-activated PBMCs, 125 TCID50, day 7, RT activity
Description: as §2

[6] = test system: HIV-1 96USHIPS4 (B-X4/R5); test: PBMC antiviral assay (RT activity), HIV-1 96USHIPS4; assay type: cell-based; conditions: PHA-P-activated PBMCs, 125 TCID50, day 7, RT activity
Description: as §2

[7] = test system: HIV-1 Ba-L (B-R5); test: PBMC antiviral assay (RT activity), HIV-1 Ba-L; assay type: cell-based; conditions: PHA-P-activated PBMCs, 125 TCID50, day 7, RT activity
Description: as §2

[8] = test system: HIV-1 92UG029 (A-X4); test: PBMC antiviral assay (RT activity), HIV-1 92UG029; assay type: cell-based; conditions: PHA-P-activated PBMCs, 125 TCID50, day 7, RT activity
Description: as §2

[9] = test system: HIV-1 LAI; test: MAGI assay, HIV-1 LAI; assay type: cell-based; conditions: MAGI cells, 48 h, mean of triplicate ± SD
Description: as §1

[10] = test system: HeLa CD4/CCR5-LTR/β-gal cells; test: Cytotoxicity by MTT method (MAGI cells); assay type: cell-based; conditions: MTT, mean of triplicate ± SD
Description: as §1

EC50 [1]: 0.021 ± 0.011 µM
EC50 [2]: 0.012 ± 0.003 µM
EC50 [4]: 0.012 ± 0.002 µM
EC50 [5]: 0.006 ± 0.002 µM
EC50 [6]: 0.018 ± 0.01 µM
EC50 [7]: 0.015 ± 0.021 µM
EC50 [8]: 0.009 ± 0.004 µM
EC50 [9]: 0.012 ± 0.008 µM
SMILES: Cc1cn([C@H]2C[C@H](N=[N+]=[N-])[C@@H](CO)O2)c(=O)[nH]c1=O [AZT, reference compound]
CC50 [3]: > 1 µM
CC50 [10]: > 100 µM
